Reference: patent US20120035260A1, “TELLURIUM-CONTAINING COMPOUNDS FOR AFFECTING FEMALE'S REPRODUCTIVE SYSTEM FOLLOWING CHEMOTHERAPY AND/OR RADIOTHERAPY” (BIOMAS LTD., priority 2009, published 2012)

Experiments:
[1] = tested on: ovarian follicles; assay type: in vivo, female Balb/c mice; conditions: single 75, 100 or 150 mg/kg Cy or 4 weekly 75 mg/kg Cy, AS101 as co-treatment with Cy; for ratio of primary follicles relative to primordial follicles: FIG. 3A; for ratio of secondary follicles relative to primordial follicles: FIG. 3B
Description: (§1) 6 week old female Balb/c mice were divided randomly into 4 groups. The mice in the treatment groups received cyclophosphamide (Cy) with or without co-treatment with AS101. Control mice received injections of phosphate buffer saline (PBS) or AS101. Cy treatment consisted of a single intraperitoneal injection of 75, 100 or 150 mg/kg Cy, or 4 weekly injections of 75 mg/kg Cy. AS101 was injected at a dose of 10 mg/kg every other day starting 1 week prior to Cy administration until 1 week after the last administration of Cy. PBS was injected on the same days as described for AS101.
(§2) Both ovaries were removed 7 days after the last Cy administration treatment, and fixed in 4% paraformaldehyde in PBS. The ovaries were embedded in paraplast and serially sectioned to 5 μm slices, and stained with haematoxylin/eosin. Care was taken to ensure that both ovaries were removed from each mouse in their entirety for histological processing. Primordial, primary and secondary follicles were counted by two blinded examiners who were unaware of the treatments, using a light microscope (AxioImager Z1, Zeiss, Oberkochen, Germany) in bright-field mode using a X20 objective. To avoid counting the same follicle twice, only one section in each set of five consecutive sections was used. The relative distribution of different stages of early follicle growth was then calculated.
(§3) Follicles were classified as primordial follicles (PMF) if they contained an oocyte surrounded by a partial or complete layer of squamous pregranulosa cells without a theca layer. In this species, PMF are located almost exclusively in the ovarian cortex, and they are very small (about 15 μm diameter). The follicular count of each follicle type was then multiplied by 5 to reach a representative of total follicles [Meirow et al., Hum Reprod 1999; 14:1903-1907]. The data from follicular count is presented as the percentage of the count obtained from the PBS-treated control group.
The populations of primary follicles, secondary follicles and primordial follicles (PMF) were characterized following single injections of 75, 100 or 150 mg/kg Cy or 4 weekly injections of 75 mg/kg Cy.

[2] = tested on: ovarian follicles; assay type: in vivo
Description: Follicular apoptosis was visualized using the TUNEL staining of ovaries from additional group of mice sacrificed at 12, 24 and 48 hours after a single injection of 150 mg/kg Cy.

[3] = cited from earlier work
[4] = cancer patients, AS101 in combination with chemotherapy; cited from earlier work
[5] = tested on: tumor; conditions: cited from earlier work
[6] = tested on: ovarian primordial follicles (PMF); experiment: Primordial follicle (PMF) counts in ovaries of cyclophosphamide-treated mice; assay type: in vivo, female Balb/c mice; conditions: AS101 10 mg/kg every other day where co-treated; for ovarian PMF count, % of that of the control (PBS) group: ovaries removed 7 days after Cy
Description: as §1, §2, §3
Student's T-test was performed to assess the differences between groups. Statistical significance was determined at p<0.05.

[7] = tested on: anti-Mullerian hormone (AMH); experiment: Plasma anti-Mullerian hormone (AMH) levels by ELISA; assay type: in vivo, female Balb/c mice; conditions: 4 weekly injections of 75 mg/kg Cy; control (PBS) group 10.7±2.1 ng/ml
Description: as §1
Anti-Mullerian hormone (AMH) levels in the plasma were measured by ELISA techniques according to the manufacturer instruction (DSL, Webster, Tex.).
Mice were administered PBS, AS101, Cy or Cy+AS101 for 4 weeks, as described hereinabove.

SMILES | ratio of primary follicles relative to primordial follicles [1] | ratio of secondary follicles relative to primordial follicles [1] | TUNEL staining of ovary, follicle appearance ([2]; co-therapy with a chemotherapeutic agent and AS101, FIG. 5C) | apoptotic (TUNEL) stain in primordial follicles ([2]; ovary treated with AS101, FIG. 5B) | survival of mice ([3]; mice treated with various cytotoxic drugs or radiation) | protection from hematopoietic damage ([3]; mice, lethal and sublethal doses of chemotherapeutic drugs, including cyclophosphamide) | severity of neutropenia, thrombocytopenia and alopecia that accompany chemotherapy [4] | effect in combination with Cy ([5]; treatment of tumor-bearing mice) | anti-tumoral effect ([5]; variety of tumor models in mice and humans) | PMF count, % of that of the control group ([6]; 75 mg/kg Cy once a week for 4 weeks, ovaries removed 7 days after last Cy) | ovarian PMF count, % of that of the control (PBS) group ([6]; single i.p. injection of 75 mg/kg Cy) | ovarian PMF count, % of that of the control (PBS) group ([6]; single i.p. injection of 100 mg/kg Cy) | ovarian PMF count, % of that of the control (PBS) group ([6]; single i.p. injection of 150 mg/kg Cy) | plasma AMH levels [7] [ng/mL] | apoptotic (TUNEL) staining in granulosa cells of growing follicles ([2]; 24 hours after a single treatment with 150 mg/kg Cy, FIG. 5A)
Cl[TeH]1(Cl)(Cl)OCCO1 [AS101, ammonium trichloro(dioxyethylene-O,O′)tellurate] | prevented the Cy-induced increase in these ratios | prevented the Cy-induced increase in these ratios | follicles destroyed by chemotherapy as well as healthy primordial follicles of ovary are observed | no apoptotic stain was detected | increase the survival of mice | protect mice from hematopoietic damage | significant reduction in the severity | synergistic effect with Cy | exhibits an anti-tumoral effect |  |  |  |  |  | 
O=P1(N(CCCl)CCCl)NCCCO1 (centres unmarked) [Cy, cyclophosphamide] | increased the ratio | increased the ratio |  |  |  |  |  |  |  | 12.2%±9.5% | 52.1%±15.1% | 48%±12.6% | 38%±22.2% | 7.2 ± 1.9 | extensive apoptotic staining
